Data from patent US11617762B2, “Compositions comprising sulfated polysaccharides” (SEANERGY DERMATOLOGY LTD., priority 2016, dated 2023).

Experiments:
[1] = tested on: TNFα secretion in RAW 264.7 cells; experiment: LPS-induced TNFα secretion by RAW 264.7 macrophage cells (ELISA); type: cell-based; conditions: LPS 1 μg/ml, 24 hr
Method: The potential for synergistic interaction was tested by assaying inflammatory mediator secretion by a macrophage cell line (RAW 264.7), following stimulation with lipopolysaccharide (LPS). […] RAW 264.7 monocyte macrophage cells (approximately 4×10^5/ml) were seeded in 24 well plates containing 800 microliters/well of complete growth medium (DMEM containing 2 mM glutamine, 100 U/ml penicillin and 100 μg/ml streptomycin and 10% fetal bovine serum). The cells were then incubated at 37 degrees Celsius with 5% carbon dioxide for 24 h. At the end of this period, growth medium supplemented with 1 μg/ml lipopolysaccharide (LPS) was added to the cells, together with the test substances (SPS, anti-inflammatory drugs and their combinations) and various controls), and the cells were then incubated for a further 24 hr. period under the same conditions as before. Following this incubation period, the conditioned medium was aspirated from the various test and control wells and centrifuged at 14,000 g for 5 minutes to remove particulate matter. The clear supernatants were then stored at −70 degrees Celsius prior to assaying the inflammatory mediatory content therein. The cytokine/mediator content in the thawed supernatants was assayed using standard ELISA kits for TNFα, IL-6 and PGE2 (BioLegend Inc., San Diego, Calif., USA). Method: Raw 264.7 macrophage cells were incubated (as described above) in the absence or presence of LPS and treated without or with the SPS (Porphyridium C. SPS), Dexamethasone or a combination thereof for 24 hr. Then, TNFα levels in the spent medium were quantified by ELISA, as explained above. DMSO were used as vehicle. Methods: Hydrocortisone, Mometasone furoate and Porphyridium SPS were tested alone and in combination, according to the methods described hereinabove, in order to assess the effect of these various treatments on TNFα secretion in RAW 264.7 cells. Methods: Dexamethasone alone, SPS obtained from brown algae and green algae alone, and combinations of dexamethasone with the SPS, were tested, as described hereinabove, in order to assess the effect of these various treatments on TNFα secretion in RAW 264.7 cells.

[2] = tested on: PGE2 secretion in RAW 264.7 cells; experiment: LPS-induced prostaglandin E2 secretion by RAW 264.7 macrophage cells (ELISA); type: cell-based
Method: The potential for synergistic interaction was tested by assaying inflammatory mediator secretion by a macrophage cell line (RAW 264.7), following stimulation with lipopolysaccharide (LPS). The inflammatory mediators assayed were: tumor necrosis factor—alpha (TNF-alpha), interleukin 6 (IL-6) and prostaglandin E2 (PGE2). RAW 264.7 monocyte macrophage cells (approximately 4×10^5/ml) were seeded in 24 well plates containing 800 microliters/well of complete growth medium (DMEM containing 2 mM glutamine, 100 U/ml penicillin and 100 μg/ml streptomycin and 10% fetal bovine serum). The cells were then incubated at 37 degrees Celsius with 5% carbon dioxide for 24 h. At the end of this period, growth medium supplemented with 1 μg/ml lipopolysaccharide (LPS) was added to the cells, together with the test substances (SPS, anti-inflammatory drugs and their combinations) and various controls), and the cells were then incubated for a further 24 hr. period under the same conditions as before. Following this incubation period, the conditioned medium was aspirated from the various test and control wells and centrifuged at 14,000 g for 5 minutes to remove particulate matter. The clear supernatants were then stored at −70 degrees Celsius prior to assaying the inflammatory mediatory content therein. The cytokine/mediator content in the thawed supernatants was assayed using standard ELISA kits for TNFα, IL-6 and PGE2 (BioLegend Inc., San Diego, Calif., USA). […] SPS was also investigated on Prostaglandin E2 (PGE2) secretion, as an independent inflammation marker derived from arachidonic acid metabolism. Raw 264.7 macrophage cells were incubated (as described above) in the absence or presence of LPS and treated without or with the SPS (Porphyridium C. SPS), Indomethacin or a combination thereof for 24 hr. Then, PGE2 levels in the supernatant medium were quantified by ELISA, as explained above. DMSO were used as vehicle. […]

## C[C@@H]1C[C@H]2[C@@H]3CCC4=CC(=O)C=C[C@]4(C)[C@@]3(F)[C@@H](O)C[C@]2(C)[C@@]1(O)C(=O)CO [Dexamethasone]
[1]; Mus musculus, RAW264.7, Table 2, TNFα, 1.0 μM alone
  inhibition at 1 µM: 34%
[1]; Table 2, 1.0 μM alone
  TNFα concentration (ng/ml): 7,400 ng/ml

## C[C@@H]1C[C@H]2[C@@H]3CCC4=CC(=O)C=C[C@]4(C)[C@@]3(Cl)[C@@H](O)C[C@]2(C)[C@@]1(OC(=O)c1ccco1)C(=O)CCl [Mometasone furoate]
[1]; Mus musculus, RAW264.7, Table 1, TNFα, 0.5 μM alone, read-out: % inhibition (mean; n = 3)
  inhibition at 0.5 µM: 32%
[1]; Table 1, 0.5 μM alone
  TNFα concentration (ng/ml): 7,600 ng/ml

## COc1ccc2c(c1)c(CC(=O)O)c(C)n2C(=O)c1ccc(Cl)cc1 [indomethacin, Indomethacin]
[2]; Example 3, FIG. 3, used alone
  effect on LPS-stimulated Prostaglandin E2 secretion (in words): inhibited LPS-stimulated Prostaglandin E2 secretion to a certain degree, although this effect was not statistically significant

## C[C@]12CCC(=O)C=C1CC[C@@H]1[C@@H]2[C@@H](O)C[C@@]2(C)[C@H]1CC[C@]2(O)C(=O)CO [Hydrocortisone]
[1]; Mus musculus, RAW264.7, Table 1, TNFα, 5.0 μM alone, read-out: % inhibition (mean; n = 3)
  inhibition at 5 µM: 27%
[1]; Table 1, 5.0 μM alone
  TNFα concentration (ng/ml): 8,200 ng/ml

## O=C(O)Cc1ccccc1Nc1c(Cl)cccc1Cl [Diclofenac]
[2]; Mus musculus, RAW264.7, Table 3, PGE2, 0.1 μM alone, LPS 1 μg/ml, 24 hr
  inhibition at 0.1 µM: 7.5%
[2]; Table 3, 0.1 μM alone, LPS 1 μg/ml, 24 hr
  PGE2: 3,700
